Measured values published in patent publication US4619823A, “Radioactive iodine labeled metaraminol and diagnostic agent containing platelets labeled therewith” (Nihon Medi-Physics Co., Ltd., priority 1983, dated 1986).

tested on: platelets; conditions: 100 µM
Experimental: Change of the take up rate of ^125 I-labled metaraminol into platelets in coexistence with of a medical compound:
The take up rate of ^125 I-labeled metaraminol into platelets in the coexistence with a medical compound was examined. Calculation was make taking the take up rate in case of ^125 I-labeled metaraminol alone as 100%. ^125 I-labeled metaraminol was added to platelets in a molar concentration of 1×10^-7.

| Structure (SMILES) | activity |
| --- | --- |
| CNCC(O)c1ccc(O)c(O)c1 (stereo not shown) [Adrenaline] | 61.6 ± 8.3% |
| CN(C)CCCN1c2ccccc2CCc2ccccc21 [Imipramine] | 45.8 ± 6.3% |
| Cc1ccc(N(CC2=NCCN2)c2cccc(O)c2)cc1 [Phentolamine] | 43.1 ± 3.4% |
| CC(C)NCC(O)COc1cccc2ccccc12 (stereo not shown) [Propranolol] | 18 ± 3.1% |
| NCCc1c[nH]c2ccc(O)cc12 [Serotonin] | 17.1 ± 10.3% |

tested on: not given; conditions: background statement; cited from earlier work

| Structure (SMILES) | toxicity |
| --- | --- |
| CC(N)C(O)c1cccc(O)c1 (stereo not drawn) [metaraminol, alpha-(1-aminoethyl)-3-hydroxybenzenemethanol] | no practical toxicity problem |
| Oc1cccc2cccnc12 [oxine] | relatively high toxicity |
